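Protocol summary: plate cells (96-well), add compound at 5 concentrations, incubate 48 h, interpolate endpoints linearly. TGI is the concentration that stops growth completely.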
test system: OVCAR-8 ovarian; test: inhibition of tumour cell growth, NCI panel, 48 h

`CCCCCCCCCCCCCCCCCCNc1ccn(C2OC(COP(=O)(O)OC3CC(n4cc(F)c(=O)[nH]c4=O)OC3COP(=O)(O)OCC3OC(n4ccc(N)nc4=O)C(O)C3O)C(O)C2O)c(=O)n1` (stereo not given) showed a TGI greater than 51.8 µM.

test system: OVCAR-4 ovarian; test: inhibition of tumour cell growth, NCI panel, 48 h

Going from `N#CC(C#N)N=Cc1ccncc1` to `COc1cc(/C=C(\C#N)c2nc3ccccc3o2)ccc1O`, the TGI falls from greater than 100 µM to 40.7 µM.

`COC(=O)C1=C(O)C(C(=O)OC)[C@]2(O)[C@H](C(=O)OC)[C@H]1C[C@@H](c1ccc(F)cc1)[C@H]2C(=O)OC` (stereo not given in full) and `CCOC(=O)C1=CN/C(=C(/C)C(=O)OC)SC1C(=O)OCC` (stereo not given) cannot be ordered by TGI: greater than 100 µM for the first, greater than 100 µM for the second.

Going from `CC(=O)O[C@H]1CC[C@H]2[C@@H]3CCC4C(C)=NNC(=O)C4[C@H]3CC[C@]12C` (stereo not given in full) to `CC1(C)C2CCC3=C(CCC4(C)C5C[C@](C)(C(=O)O)CC[C@]5(C)CC[C@]34C)[C@@]2(C)CC[C@@H]1O` (stereo not given in full), the TGI falls from greater than 100 µM to 32.9 µM.

`O=c1[nH]c(C23CC4CC(CC(C4)C2)C3)cc2c1c(=O)oc1ccccc12` and `O=C1C(=O)c2c(oc(=O)c3ccccc23)-c2ccccc21` are within 1.5-fold of each other in TGI: 14 µM for the first, 20.3 µM for the second.

`CN1CCC2(CC1)SC[C@H]1C(=O)N(c3ccc(Cl)cc3)C(=O)N12` and `O=C(N/N=C/c1ccc2c(c1)OCO2)Nc1ccccc1Cl` cannot be ordered by TGI: greater than 100 µM for the first, greater than 100 µM for the second.

`CC(C)=CCC[C@@H](C)C1=C(O)C(O)C(C)=C2N=C(c3ccccc3)C(=O)OC21` (stereo not given in full) and `Cc1cc(C)nc(NS(=O)(=O)c2ccc(NNc3c4ccccc4nc4c(C(=O)Nc5ccc(S(=O)(=O)Nc6ncccn6)cc5)cccc34)cc2)n1` cannot be ordered by TGI: greater than 25 µM for the first, 89.7 µM for the second.

Going from `COc1ccc2cc(CNCCCCCCCCCCCCNCc3ccc4cc(OC)ccc4c3)ccc2c1` to `CCCCCCCCCCCCCCCCCCNc1ccn(C2OC(COP(=O)(O)OC3CC(n4cc(F)c(=O)[nH]c4=O)OC3COP(=O)(O)OCC3OC(n4ccc(N)nc4=O)C(O)C3O)C(O)C2O)c(=O)n1` (stereo not given), the TGI rises from 41.3 µM to greater than 100 µM.

`O=C1CC(NC(=O)C(F)(F)F)c2c1csc2Br` (stereo not given) and `CCOC(=O)C(SCCO)C(C(=O)OCC)n1cnc2c(N)ncnc21` (stereo not given) cannot be ordered by TGI: greater than 100 µM for the first, greater than 48.3 µM for the second.

test system: MOLT-4 leukemia; test: inhibition of tumour cell growth, NCI panel, 48 h

`N#CC(C#N)N=Cc1ccncc1` and `COc1cc(/C=C(\C#N)c2nc3ccccc3o2)ccc1O` cannot be ordered by TGI: greater than 100 µM for the first, greater than 100 µM for the second.

`COC(=O)C1=C(O)C(C(=O)OC)[C@]2(O)[C@H](C(=O)OC)[C@H]1C[C@@H](c1ccc(F)cc1)[C@H]2C(=O)OC` (stereo not given in full) and `CCOC(=O)C1=CN/C(=C(/C)C(=O)OC)SC1C(=O)OCC` (stereo not given) cannot be ordered by TGI: greater than 100 µM for the first, greater than 100 µM for the second.

Going from `CC(=O)O[C@H]1CC[C@H]2[C@@H]3CCC4C(C)=NNC(=O)C4[C@H]3CC[C@]12C` (stereo not given in full) to `CC1(C)C2CCC3=C(CCC4(C)C5C[C@](C)(C(=O)O)CC[C@]5(C)CC[C@]34C)[C@@]2(C)CC[C@@H]1O` (stereo not given in full), the TGI falls from greater than 100 µM to 48.9 µM.

`O=c1[nH]c(C23CC4CC(CC(C4)C2)C3)cc2c1c(=O)oc1ccccc12` and `O=C1C(=O)c2c(oc(=O)c3ccccc23)-c2ccccc21` cannot be ordered by TGI: greater than 100 µM for the first, greater than 25 µM for the second.

`CN1CCC2(CC1)SC[C@H]1C(=O)N(c3ccc(Cl)cc3)C(=O)N12` and `O=C(N/N=C/c1ccc2c(c1)OCO2)Nc1ccccc1Cl` cannot be ordered by TGI: greater than 100 µM for the first, greater than 100 µM for the second.

`CC(C)=CCC[C@@H](C)C1=C(O)C(O)C(C)=C2N=C(c3ccccc3)C(=O)OC21` (stereo not given in full) and `Cc1cc(C)nc(NS(=O)(=O)c2ccc(NNc3c4ccccc4nc4c(C(=O)Nc5ccc(S(=O)(=O)Nc6ncccn6)cc5)cccc34)cc2)n1` cannot be ordered by TGI: greater than 19.3 µM for the first, 92.9 µM for the second.

First: COc1ccc2cc(CNCCCCCCCCCCCCNCc3ccc4cc(OC)ccc4c3)ccc2c1
Second: CCCCCCCCCCCCCCCCCCNc1ccn(C2OC(COP(=O)(O)OC3CC(n4cc(F)c(=O)[nH]c4=O)OC3COP(=O)(O)OCC3OC(n4ccc(N)nc4=O)C(O)C3O)C(O)C2O)c(=O)n1 (stereo not given)
The TGI of the first is higher: greater than 58.9 µM for the first, 29.2 µM for the second.

Compared with `O=C1CC(NC(=O)C(F)(F)F)c2c1csc2Br` (stereo not given), `CCOC(=O)C(SCCO)C(C(=O)OCC)n1cnc2c(N)ncnc21` (stereo not given) is lower in TGI: greater than 100 µM for the first, 20 µM for the second.

test system: IGROV1 ovarian; test: inhibition of tumour cell growth, NCI panel, 48 h

Compared with `N#CC(C#N)N=Cc1ccncc1`, `COc1cc(/C=C(\C#N)c2nc3ccccc3o2)ccc1O` is lower in TGI: greater than 100 µM for the first, 38.1 µM for the second.

First: COC(=O)C1=C(O)C(C(=O)OC)[C@]2(O)[C@H](C(=O)OC)[C@H]1C[C@@H](c1ccc(F)cc1)[C@H]2C(=O)OC (stereo not given in full)
Second: CCOC(=O)C1=CN/C(=C(/C)C(=O)OC)SC1C(=O)OCC (stereo not given)
The TGI of the first is lower: 59.8 µM for the first, greater than 100 µM for the second.

First: CC(=O)O[C@H]1CC[C@H]2[C@@H]3CCC4C(C)=NNC(=O)C4[C@H]3CC[C@]12C (stereo not given in full)
Second: CC1(C)C2CCC3=C(CCC4(C)C5C[C@](C)(C(=O)O)CC[C@]5(C)CC[C@]34C)[C@@]2(C)CC[C@@H]1O (stereo not given in full)
The TGI of the first is higher: greater than 79.4 µM for the first, 49.4 µM for the second.

First: O=c1[nH]c(C23CC4CC(CC(C4)C2)C3)cc2c1c(=O)oc1ccccc12
Second: O=C1C(=O)c2c(oc(=O)c3ccccc23)-c2ccccc21
The TGI of the first is lower: 13 µM for the first, greater than 25 µM for the second.

`CN1CCC2(CC1)SC[C@H]1C(=O)N(c3ccc(Cl)cc3)C(=O)N12` and `O=C(N/N=C/c1ccc2c(c1)OCO2)Nc1ccccc1Cl` cannot be ordered by TGI: greater than 100 µM for the first, greater than 35.3 µM for the second.

`CC(C)=CCC[C@@H](C)C1=C(O)C(O)C(C)=C2N=C(c3ccccc3)C(=O)OC21` (stereo not given in full) and `Cc1cc(C)nc(NS(=O)(=O)c2ccc(NNc3c4ccccc4nc4c(C(=O)Nc5ccc(S(=O)(=O)Nc6ncccn6)cc5)cccc34)cc2)n1` cannot be ordered by TGI: greater than 25 µM for the first, greater than 100 µM for the second.

Going from `COc1ccc2cc(CNCCCCCCCCCCCCNCc3ccc4cc(OC)ccc4c3)ccc2c1` to `CCCCCCCCCCCCCCCCCCNc1ccn(C2OC(COP(=O)(O)OC3CC(n4cc(F)c(=O)[nH]c4=O)OC3COP(=O)(O)OCC3OC(n4ccc(N)nc4=O)C(O)C3O)C(O)C2O)c(=O)n1` (stereo not given), the TGI rises from 29.9 µM to 54.9 µM (1.8-fold).

Compared with `O=C1CC(NC(=O)C(F)(F)F)c2c1csc2Br` (stereo not given), `CCOC(=O)C(SCCO)C(C(=O)OCC)n1cnc2c(N)ncnc21` (stereo not given) is lower in TGI: greater than 100 µM for the first, 36.5 µM for the second.

test system: UO-31 renal; test: inhibition of tumour cell growth, NCI panel, 48 h

First: COC(=O)C1=C(O)C(C(=O)OC)[C@]2(O)[C@H](C(=O)OC)[C@H]1C[C@@H](c1ccc(F)cc1)[C@H]2C(=O)OC (stereo not given in full)
Second: CCOC(=O)C1=CN/C(=C(/C)C(=O)OC)SC1C(=O)OCC (stereo not given)
The TGI of the first is lower: 29.1 µM for the first, greater than 100 µM for the second.

`CC(=O)O[C@H]1CC[C@H]2[C@@H]3CCC4C(C)=NNC(=O)C4[C@H]3CC[C@]12C` (stereo not given in full) and `CC1(C)C2CCC3=C(CCC4(C)C5C[C@](C)(C(=O)O)CC[C@]5(C)CC[C@]34C)[C@@]2(C)CC[C@@H]1O` (stereo not given in full) cannot be ordered by TGI: greater than 100 µM for the first, greater than 100 µM for the second.

Compared with `O=c1[nH]c(C23CC4CC(CC(C4)C2)C3)cc2c1c(=O)oc1ccccc12`, `O=C1C(=O)c2c(oc(=O)c3ccccc23)-c2ccccc21` is higher in TGI: 4.23 µM for the first, greater than 25 µM for the second.

`CN1CCC2(CC1)SC[C@H]1C(=O)N(c3ccc(Cl)cc3)C(=O)N12` and `O=C(N/N=C/c1ccc2c(c1)OCO2)Nc1ccccc1Cl` cannot be ordered by TGI: greater than 100 µM for the first, greater than 100 µM for the second.

Going from `CC(C)=CCC[C@@H](C)C1=C(O)C(O)C(C)=C2N=C(c3ccccc3)C(=O)OC21` (stereo not given in full) to `COc1cc(/C=C(\C#N)c2nc3ccccc3o2)ccc1O`, the TGI rises from 14.6 µM to 85.9 µM (5.9-fold).

First: COc1ccc2cc(CNCCCCCCCCCCCCNCc3ccc4cc(OC)ccc4c3)ccc2c1
Second: CCCCCCCCCCCCCCCCCCNc1ccn(C2OC(COP(=O)(O)OC3CC(n4cc(F)c(=O)[nH]c4=O)OC3COP(=O)(O)OCC3OC(n4ccc(N)nc4=O)C(O)C3O)C(O)C2O)c(=O)n1 (stereo not given)
The TGI of the first is lower: 35.8 µM for the first, greater than 51.9 µM for the second.

First: Cc1cc(C)nc(NS(=O)(=O)c2ccc(NNc3c4ccccc4nc4c(C(=O)Nc5ccc(S(=O)(=O)Nc6ncccn6)cc5)cccc34)cc2)n1
Second: CCOC(=O)C(SCCO)C(C(=O)OCC)n1cnc2c(N)ncnc21 (stereo not given)
The TGI of the first is higher: greater than 100 µM for the first, 55.1 µM for the second.

With `O=C1CC(NC(=O)C(F)(F)F)c2c1csc2Br` (stereo not given) the TGI was greater than 100 µM.

test system: DU-145 prostate; test: inhibition of tumour cell growth, NCI panel, 48 h

Going from `N#CC(C#N)N=Cc1ccncc1` to `COc1cc(/C=C(\C#N)c2nc3ccccc3o2)ccc1O`, the TGI falls from greater than 100 µM to 65.1 µM.

Going from `COC(=O)C1=C(O)C(C(=O)OC)[C@]2(O)[C@H](C(=O)OC)[C@H]1C[C@@H](c1ccc(F)cc1)[C@H]2C(=O)OC` (stereo not given in full) to `CCOC(=O)C1=CN/C(=C(/C)C(=O)OC)SC1C(=O)OCC` (stereo not given), the TGI rises from 67.6 µM to greater than 100 µM.

Going from `CC(=O)O[C@H]1CC[C@H]2[C@@H]3CCC4C(C)=NNC(=O)C4[C@H]3CC[C@]12C` (stereo not given in full) to `CC1(C)C2CCC3=C(CCC4(C)C5C[C@](C)(C(=O)O)CC[C@]5(C)CC[C@]34C)[C@@]2(C)CC[C@@H]1O` (stereo not given in full), the TGI falls from greater than 100 µM to 34.5 µM.

Going from `O=c1[nH]c(C23CC4CC(CC(C4)C2)C3)cc2c1c(=O)oc1ccccc12` to `O=C1C(=O)c2c(oc(=O)c3ccccc23)-c2ccccc21`, the TGI rises from 22 µM to greater than 25 µM.

`CN1CCC2(CC1)SC[C@H]1C(=O)N(c3ccc(Cl)cc3)C(=O)N12` and `O=C(N/N=C/c1ccc2c(c1)OCO2)Nc1ccccc1Cl` cannot be ordered by TGI: greater than 100 µM for the first, greater than 20.3 µM for the second.

`CC(C)=CCC[C@@H](C)C1=C(O)C(O)C(C)=C2N=C(c3ccccc3)C(=O)OC21` (stereo not given in full) and `Cc1cc(C)nc(NS(=O)(=O)c2ccc(NNc3c4ccccc4nc4c(C(=O)Nc5ccc(S(=O)(=O)Nc6ncccn6)cc5)cccc34)cc2)n1` cannot be ordered by TGI: greater than 25 µM for the first, greater than 100 µM for the second.

Compared with `COc1ccc2cc(CNCCCCCCCCCCCCNCc3ccc4cc(OC)ccc4c3)ccc2c1`, `CCCCCCCCCCCCCCCCCCNc1ccn(C2OC(COP(=O)(O)OC3CC(n4cc(F)c(=O)[nH]c4=O)OC3COP(=O)(O)OCC3OC(n4ccc(N)nc4=O)C(O)C3O)C(O)C2O)c(=O)n1` (stereo not given) is lower in TGI: greater than 56.1 µM for the first, 39.8 µM for the second.

`O=C1CC(NC(=O)C(F)(F)F)c2c1csc2Br` (stereo not given) and `CCOC(=O)C(SCCO)C(C(=O)OCC)n1cnc2c(N)ncnc21` (stereo not given) cannot be ordered by TGI: greater than 100 µM for the first, greater than 100 µM for the second.

Reference: PubChem BioAssay (NCI)
